Source: patent US20110054193A1, “STATIN PRODUCTION” (priority 2008, published 2011)

Columns and labels:
[1] = test system: Penicillium chrysogenum ΔhdfAΔ Pc18g05230; assay: Compactin sensitivity of Penicillium chrysogenum strains, growth in liquid media; format: cell-based; details: mutant for Pc18g05230 (SEQ ID NO 1); liquid media with different amounts of compactin; 2 days of growth at 25 C
Procedure: (§1) Fungal growth was performed in a mineral medium, containing (g/L): glucose (5); lactose (35); urea (4.5); (NH4)2SO4 (1.1); Na2SO4 (2.9); KH2PO4 (5.2); K2HPO4 (4.8) and 10 mL/L of a trace element solution containing (in g/l): citric acid (150); FeSO4.7H2O (15); MgSO4.7H2O (150); H3BO3 (0.0075); CuSO4.5H2O (0.24); CoSO4.7H2O (0.375); ZnSO4.7H2O (5); MnSO4.H2O (2.28); CaCl2.2H2O (0.99); pH before sterilization 6.5. Oxoid agar was added at 15 g/l to solidify the medium.
(§2) Compactin was maintained as a stock solution at 20 g/L in ethanol at −20 C.
The gene Pc18g05230 was identified as a HMGR encoding gene. In order to prevent the transcription of this gene a selection marker gene was inserted between the promoter and the open reading frame (ORF). To this end the promoter and the ORF were PCR amplified using the oligonucleotides SEQ ID NO 5 plus 6 and SEQ ID NO 7 plus 8, respectively (see FIG. 1). Phusion Hot-Start Polymerase (Finnzymes) was used to amplify the fragments. The fragments obtained are 1539 and 2514 base pairs (bp) in length (SEQ ID NO 31 and SEQ ID NO 32) and contain a 14 bp tail suitable for the so-called STABY cloning method (Eurogentec). From the standard STABY vector, pSTC1.3, two derivatives were obtained. One, pSTamdSL (SEQ ID NO 39), was used for cloning the PCR amplified promoter (SEQ ID NO 31). […]

[2] = test system: Penicillium chrysogenum ΔhdfAΔ Pc16g05060; assay: as above; format: cell-based; details: mutant for Pc16g05060 (SEQ ID NO 9); liquid media with different amounts of compactin; 2 days of growth at 25 C
Procedure: as §1, §2
The gene Pc16g05060 was identified as a HMGR encoding gene. In order to prevent the transcription of this gene a selection marker gene was inserted between the promoter and the open reading frame (ORF). To this end the promoter and the ORF were PCR amplified using the oligonucleotides SEQ ID NO 13 plus 14 and SEQ ID NO 15 plus 16, respectively (see FIG. 1). Phusion Hot-Start Polymerase (Finnzymes) was used to amplify the fragments. The fragments obtained are 1539 and 1514 base pairs (bp) in length (SEQ ID NO 35 and SEQ ID NO 36) and contain a 14 bp tail suitable for the so-called STABY cloning method (Eurogentec).
Spores of the Penicillium chrysogenum mutants for both HMGR encoding genes, Pc18g05230 (SEQ ID NO 1) and Pc16g05060 (SEQ ID NO 9), were inoculated in liquid media with different amounts of compactin.

## CC[C@H](C)C(=O)O[C@H]1CCC=C2C=C[C@H](C)[C@H](CC[C@@H]3C[C@@H](O)CC(=O)O3)[C@H]21 [Compactin, compactin]
[1]
  compactin sensitivity of the mutant, in words: increased compactin sensitivity
[2]
  compactin sensitivity of the mutant, in words: increased compactin sensitivity
